From the NIST ThermoML archive (doi:10.1021/je800981d)
Where “and” joins values, the source holds several entries; their conditions need not be identical. Equal entries are not always repeated.

Legend:
[1] = Liquid
[2] = refractive index (Na D-line) (dimensionless); settings: 101.33 kPa, Liquid, Standard Abbe refractometry
[3] = refractive index (Na D-line) (dimensionless); xn = mol fraction of the nth substance listed; settings: 298.15 K, 101 kPa, Liquid, Standard Abbe refractometry
[4] = xn = mol fraction of the nth substance listed; settings: 101 kPa, Liquid

CCO [ethanol]
[1], 101 kPa
Settings | mass density [kg/m3] | speed of sound [m/s] | viscosity [mPa·s]
298.15 K | 785.5 | 1146 | 1.082
313.15 K | 772 | 1093 | 0.827
328.15 K | 758.6 | 1043 | 0.641

Settings | refractive index
[2], 298.15 K | 1.36023

CCOS(=O)(=O)[O-].CC[n+]1ccccc1 [1-ethylpyridinium ethyl sulfate] + CCO
[3]
Settings | refractive index
x2 = 0 | 1.50252
x2 = 0.0476 | 1.50313
x2 = 0.1993 | 1.49585
x2 = 0.2992 | 1.48987
x2 = 0.5009 | 1.47321
x2 = 0.6033 | 1.46152
x2 = 0.7023 | 1.44693
x2 = 0.8016 | 1.42734
x2 = 0.899 | 1.40078
x2 = 0.9476 | 1.38342

[4]
Settings | mass density, 298.15 K [kg/m3] | mass density, 313.15 K [kg/m3] | mass density, 328.15 K [kg/m3] | speed of sound, 298.15 K [m/s] | speed of sound, 313.15 K [m/s] | speed of sound, 328.15 K [m/s] | viscosity, 298.15 K [mPa·s] | viscosity, 313.15 K [mPa·s] | viscosity, 328.15 K [mPa·s]
x2 = 0 | 1252 | 1242.1 | 1232.3 | 1711 | 1676 | 1641 | 126.3 | 57.6 | 38.6
x2 = 0.0476 | 1245.3 | 1235.3 | 1225.3 | 1700 | 1665 | 1631 | 103.3 | 50.3 | 34.14
x2 = 0.1993 | 1220.8 | 1210.8 | 1200.7 | 1661 | 1625 | 1591 | 58.4 | 33.9 | 22.38
x2 = 0.2992 | 1201.2 | 1190.9 | 1180.7 | 1630 | 1593 | 1558 | 40.3 | 23.51 | 15.2
x2 = 0.5009 | 1147.2 | 1136.4 | 1125.9 | 1546 | 1508 | 1472 | 17.27 | 11.39 | 8.015
x2 = 0.6033 | 1109.2 | 1098.4 | 1087.7 | 1491 | 1453 | 1388 | 10.79 | 7.07 | 5.198
x2 = 0.7023 | 1062 | 1051 | 1039.9 | 1428 | 1388 | 1350 | 6.63 | 4.8 | 3.642
x2 = 0.8016 | 999.9 | 988.1 | 976.6 | 1349 | 1308 | 1267 | 3.947 | 2.943 | 2.287
x2 = 0.899 | 915.5 | 903.3 | 890.1 | 1258 | 1214 | 1170 | 2.244 | 1.717 | 1.344
x2 = 0.9476 | 860.1 | 847.5 | 834.1 | 1206 | 1160 | 1113 | 1.641 | 1.261 | 0.987

CCCO [propan-1-ol] + CCOS(=O)(=O)[O-].CC[n+]1ccccc1
Settings | refractive index
[3], x1 = 1 | 1.3831

[4], x1 = 1
Settings | mass density [kg/m3] | speed of sound [m/s] | viscosity [mPa·s]
298.15 K | 799.6 | 1207 | 2.017
313.15 K | 787.4 | 1155 | 1.43
328.15 K | 774.8 | 1105 | 1.041

CCCO [propan-1-ol]
[1], 101 kPa
Settings | mass density [kg/m3] | speed of sound [m/s] | viscosity [mPa·s]
298.15 K | 799.6 | 1207 | 2.017
313.15 K | 787.4 | 1155 | 1.43
328.15 K | 774.8 | 1105 | 1.041

Settings | refractive index
[2], 298.15 K | 1.3831

CCOS(=O)(=O)[O-].CC[n+]1ccccc1 [1-ethylpyridinium ethyl sulfate] + CCCO
[3]
Settings | refractive index
x2 = 0 | 1.50525
x2 = 0.0814 | 1.50137
x2 = 0.1994 | 1.49499
x2 = 0.3084 | 1.48804
x2 = 0.4035 | 1.48081
x2 = 0.5077 | 1.47142
x2 = 0.6013 | 1.46126
x2 = 0.7016 | 1.44802
x2 = 0.8004 | 1.43181
x2 = 0.9002 | 1.411
x2 = 0.9521 | 1.39773

[4]
Settings | mass density, 298.15 K [kg/m3] | mass density, 313.15 K [kg/m3] | mass density, 328.15 K [kg/m3] | speed of sound, 298.15 K [m/s] | speed of sound, 313.15 K [m/s] | speed of sound, 328.15 K [m/s] | viscosity, 298.15 K [mPa·s] | viscosity, 313.15 K [mPa·s] | viscosity, 328.15 K [mPa·s]
x2 = 0 | 1252 | 1242.1 | 1232.3 | 1711 | 1676 | 1641 | 126.3 | 57.6 | 38.6
x2 = 0.0814 | 1237.2 | 1227.4 | 1217.6 | 1689 | 1654 | 1619 | 95.2 | 48 | 32.49
x2 = 0.1994 | 1212.7 | 1202.7 | 1192.7 | 1649 | 1613 | 1578 | 62.7 | 34.23 | 23.31
x2 = 0.3084 | 1186.1 | 1176.1 | 1165.9 | 1608 | 1572 | 1537 | 43.6 | 25.21 | 17.27
x2 = 0.4035 | 1159 | 1148.5 | 1138.3 | 1565 | 1528 | 1493 | 30.03 | 18.31 | 12.21
x2 = 0.5077 | 1123.8 | 1113 | 1102.6 | 1516 | 1478 | 1440 | 20.12 | 12.91 | 8.898
x2 = 0.6013 | 1085.8 | 1074.8 | 1064.2 | 1466 | 1427 | 1388 | 13.68 | 9.161 | 6.523
x2 = 0.7016 | 1036.7 | 1025.2 | 1014.3 | 1409 | 1367 | 1327 | 8.84 | 6.131 | 4.494
x2 = 0.8004 | 976.9 | 965.3 | 954.1 | 1347 | 1304 | 1262 | 5.597 | 3.988 | 2.977
x2 = 0.9002 | 900.6 | 888.9 | 877.1 | 1279 | 1234 | 1189 | 3.483 | 2.507 | 1.874
x2 = 0.9521 | 852.4 | 840.3 | 828.1 | 1244 | 1195 | 1147 | 2.676 | 1.921 | 1.411

CCOS(=O)(=O)[O-].CC[n+]1ccccc1 [1-ethylpyridinium ethyl sulfate]
[1]
Settings | mass density, 101.33 kPa [kg/m3] | speed of sound, 101.33 kPa [m/s] | viscosity, 101 kPa [mPa·s] | viscosity, 101.33 kPa [mPa·s]
298.15 K | 1252 | 1711 | – | 126.3
303.15 K | 1248.7 | 1699 | – | 93
308.15 K | 1245.4 | 1687 | – | 72.1
313.15 K | 1242.1 | 1676 | – | 57.6
318.15 K | 1238.8 | 1664 | – | 46.4
323.15 K | 1235.6 | 1653 | – | 38.6
328.15 K | 1232.3 | 1641 | 38.6 | 32.53
333.15 K | 1229.1 | 1630 | – | 27.78
338.15 K | 1225.9 | 1619 | – | 23.9
343.15 K | 1222.7 | 1608 | – | 20.71

[2]
Settings | refractive index
298.15 K | 1.50525 and 1.50252
303.15 K | 1.50394
308.15 K | 1.50258
313.15 K | 1.5012
318.15 K | 1.49976
323.15 K | 1.4985
328.15 K | 1.4972
333.15 K | 1.49587
338.15 K | 1.49454
343.15 K | 1.49309

CCO [ethanol] + CCOS(=O)(=O)[O-].CC[n+]1ccccc1
Settings | refractive index
[3], x1 = 1 | 1.36023

[4], x1 = 1
Settings | mass density [kg/m3] | speed of sound [m/s] | viscosity [mPa·s]
298.15 K | 785.5 | 1146 | 1.082
313.15 K | 772 | 1093 | 0.827
328.15 K | 758.6 | 1043 | 0.641
